The nature of the data set: Weight loss rate by thermogravimetric analysis (TG-DTA) to 300° C. under nitrogen. In kind it is physicochemical. The conditions noted are these: room temperature to 300° C. at 10° C./min, nitrogen gas atmosphere (100 ml/min). Here is the method: Regarding requirement (c), from the viewpoint of the staining of a mold, the emitted amount of VOC, and the weather resistance, the weight loss rate measured in a thermogravimetric analysis at a temperature of 300° C. under a nitrogen gas atmosphere preferably is less than 5% by weight, and more preferably is less than 3% by weight. The weight loss rate measured by the thermogravimetric analysis of a hindered amine light stabilizer (D) to be used for the present invention is a value determined by using a thermo gravimetry differential thermal analyzer (TG-DTA). Described concretely, it is a weight loss rate determined using a thermobalance when the temperature of a hindered amine light stabilizer (D) is increased from room temperature to 300° C. at a rate of 10° C. per minute under a nitrogen gas atmosphere (in a nitrogen flow at a flow rate of 100 ml/min).
From the viewpoint of inhibiting mold staining, the weight loss rate of the nonionic antistatic agent (E) to be used for the present invention measured by thermogravimetric analysis executed at a temperature of 300° C. under a nitrogen atmosphere preferably is less than 20% by weight, and more preferably 5 to 15% by weight. The weight loss rate is determined by the use of a thermo gravimetry differential thermal analyzer (TG-DTA). Described concretely, it is a weight loss rate determined using a thermobalance when the temperature of the nonionic antistatic agent (E) is increased from room temperature to 300° C. at a rate of 10° C. per minute under a nitrogen gas atmosphere (in a nitrogen flow at a flow rate of 100 ml/min).
The weight loss by thermogravimetric analysis (TG-DTA) of a light stabilizer was measured with a thermo gravimetry differential thermal analyzer from room temperature to 300° C. at a temperature increasing rate of 10° C./min under a nitrogen gas atmosphere (gas flow rate: 100 ml/min). […]

Take “Stearic acid monoglyceride [Example E-1]”: the “Weight loss rate by TG-DTA” value was found to be 23.8 % by weight.

With `CC(C)(C)c1ccc(OC(=O)c2cc(C(C)(C)C)c(O)c(C(C)(C)C)c2)c(C(C)(C)C)c1` [Example D-3, 2,4-di-tert-butylphenyl 3,5-di-tert-butyl-4-hydroxybenzoate], the “Weight loss rate by TG-DTA” value was determined as 31.6 % by weight. The value for `CC1(C)CC(OC(=O)CCCCCCCCC(=O)OC2CC(C)(C)NC(C)(C)C2)CC(C)(C)N1` [Example D-2, Bis(2,2,6,6-tetramethyl-4-piperidyl) sebacate] was 19.6 % by weight.

The values above are taken from patent publication US8450400B2, “Polypropylene resin composition and molded article made thereof” (Sumitomo Chemical Company, Limited, priority 2007, dated 2013).
